US20110224210A1, “NOVEL BIS-AMIDES AS ANTI-MALARIAL AGENTS” (priority 2008, published 2011)

These molecules were tested on P. falciparum K1 (strain resistant to chloroquine and pyrimethamine), erythrocytic stages (assay: Plasmodium falciparum in vitro assay, [3H] hypoxanthine incorporation). Conditions: Plasmodium falciparum, K1, P. falciparum strain K1; [3H] hypoxanthine incorporation; read-out: IC50 (nM) on K1.
Type: cell-based
Experimental: In Vitro Antimalarial Activity: Plasmodium falciparum In Vitro Assay
In vitro activity against erythrocytic stages of P. falciparum is determined using a [^3H] hypoxanthine incorporation assay. One strain resistant to chloroquine and pyrimethamine (P. falciparum K1) is used in the assays, and all test compounds are compared for activity with the standard drugs chloroquine (sigma C6628) and artemisinin (sigma-36, 159-3). Compounds are diluted in DMSO to 1 mM and added to parasite cultures incubated in RPMI 1640 medium without hypoxanthine, supplemented with HEPES (5.94 g/L), NaHCO3 (2.1 g/L), neomycin (100 U/mL), Albumax (5 g/L) and washed human red cells at 2.5% haematocrit (0.3% parasitaemia). Seven serial doubling dilutions of each compound are prepared in 96-well microtitre plates and incubated in a humidifying atmosphere at 37° C.; 4% CO2, 3% O2, 93% N2.
After 48 h, 50 μl of [3H] hypoxanthine (0.5 μCi) is added to each well of a plate. The plates are incubated for a further 24 h under the same conditions. The plates are then harvested with a Betaplate cell harvester (Wallac) and washed with distilled water. The dried filters are inserted into a plastic foil with 10 mL of scintillation fluid, and counted in a Betaplate liquid scintillation counter. IC50 values are calculated from sigmoidal inhibition curves using Microsoft Excel.

First: CC(=O)N1CCN(c2ccc(CN(C(=O)C=Cc3ccc(C(F)(F)F)cc3)[C@@H](Cc3ccccc3)C(=O)N(C)CCN(C)Cc3cccc(O)c3)cc2)CC1 [Example 240, (S)-N-[4-(4-Acetyl-piperazin-1-yl)-benzyl]-N-[1-({2-[(3-hydroxy-benzyl)-methyl-amino]-ethyl}-methyl-carbamoyl)-2-phenyl-ethyl]-3-(4-trifluoromethyl-phenyl)-acrylamide]
Second: CN(CCN(C)C(=O)[C@H](Cc1ccccc1)N(Cc1ccc(N2CCOCC2)cc1)C(=O)C=Cc1ccc(C(F)(F)F)cc1)Cc1cccc(O)c1 [Example 258, (S)-N-[1-({2-[(3-Hydroxy-benzyl)-methyl-amino]-ethyl}-methyl-carbamoyl)-2-phenyl-ethyl]-N-(4-morpholin-4-yl-benzyl)-3-(4-trifluoromethyl-phenyl)-acrylamide]
The IC50 of the first is 1.5-fold lower: 28 nM for the first, 43 nM for the second.

First: COCCN(C)C(=O)[C@H](Cc1ccccc1)N(Cc1ccc(N2CCOCC2)cc1)C(=O)C=Cc1c(C)nn(C)c1C [Example 60, (S)-N-{1-[(2-Methoxy-ethyl)-methyl-carbamoyl]-2-phenyl-ethyl}-N-(4-morpholin-4-yl-benzyl)-3-(1,3,5-trimethyl-1H-pyrazol-4-yl)-acrylamide]
Second: COCCN(C)C(=O)[C@H](Cc1ccccc1)N(Cc1ccc(N2CCOCC2)cc1)C(=O)C=Cc1sc(C)nc1C [Example 63, (S)-3-(2,4-Dimethyl-thiazol-5-yl)-N-{1-[(2-methoxy-ethyl)-methyl-carbamoyl]-2-phenyl-ethyl}-N-(4-morpholin-4-yl-benzyl)-acrylamide]
The IC50 of the first is 1.8-fold lower: 48 nM for the first, 87 nM for the second.

Compared with `COCCN(C)C(=O)[C@H](Cc1ccccc1)N(Cc1ccc(-c2ccccn2)cc1)C(=O)C=Cc1cnc(C)n1C` [Example 76, (S)-3-(2,3-Dimethyl-3H-imidazol-4-yl)-N-{1-[(2-methoxy-ethyl)-methyl-carbamoyl]-2-phenyl-ethyl}-N-(4-pyridin-2-yl-benzyl)-acrylamide], `COCCN(C)C(=O)[C@H](Cc1ccccc1)N(Cc1ccc(-c2ccccn2)cc1)C(=O)C=Cc1cc(C)nn1C` [Example 74, (S)-3-(2,5-Dimethyl-2H-pyrazol-3-yl)-N-{1-[(2-methoxy-ethyl)-methyl-carbamoyl]-2-phenyl-ethyl}-N-(4-pyridin-2-yl-benzyl)-acrylamide] is 4.1-fold lower in IC50: 163 nM for the first, 40 nM for the second.

Compared with `COCCN(C)C(=O)[C@H](Cc1ccccc1)N(Cc1ccc(N2CCN(C(C)=O)CC2)cc1)C(=O)C=Cc1sc(C)nc1C` [Example 107, (S)-N-[4-(4-Acetyl-piperazin-1-yl)-benzyl]-3-(2,4-dimethyl-thiazol-5-yl)-N-{1-[(2-methoxy-ethyl)-methyl-carbamoyl]-2-phenyl-ethyl}-acrylamide], `COCCN(C)C(=O)[C@H](Cc1ccccc1)N(Cc1ccc(N2CCN(C(C)=O)CC2)cc1)C(=O)C=Cc1csc(C)n1` [Example 108, (S)-N-[4-(4-Acetyl-piperazin-1-yl)-benzyl]-N-{1-[(2-methoxy-ethyl)-methyl-carbamoyl]-2-phenyl-ethyl}-3-(2-methyl-thiazol-4-yl)-acrylamide] is 3.2-fold higher in IC50: 70 nM for the first, 225 nM for the second. The first is the more potent here.

First: CC(=O)N1CCN(c2ccc(CN(C(=O)C=Cc3ccc(C(F)(F)F)cc3)[C@@H](Cc3ccccc3)C(=O)N(C)CCOCc3ccc4c(c3)nnn4C)cc2)CC1 [Example 189, (S)-N-[4-(4-Acetyl-piperazin-1-yl)-benzyl]-N-(1-{methyl-[2-(1-methyl-1H-benzotriazol-5-ylmethoxy)-ethyl]-carbamoyl}-2-phenyl-ethyl)-3-(4-trifluoromethyl-phenyl)-acrylamide, formic acid]
Second: CN(CCOCc1ccc2c(c1)nnn2C)C(=O)[C@H](Cc1ccccc1)N(Cc1ccc(N2CCOCC2)cc1)C(=O)C=Cc1ccc(C(F)(F)F)cc1 [Example 202, (S)-N-(1-{Methyl-[2-(1-methyl-1H-benzotriazol-5-ylmethoxy)-ethyl]-carbamoyl}-2-phenyl-ethyl)-N-(4-morpholin-4-yl-benzyl)-3-(4-trifluoromethyl-phenyl)-acrylamide]
The IC50 of the first is 1.6-fold lower: 9 nM for the first, 14 nM for the second. The first is the more potent here.

Compared with `COCCN(C)C(=O)[C@H](Cc1ccccc1)N(Cc1ccc(-c2cccnc2)cc1)C(=O)C=Cc1nc(C)oc1C` [Example 133, (S)-3-(2,5-Dimethyl-oxazol-4-yl)-N-{1-[(2-methoxy-ethyl)-methyl-carbamoyl]-2-phenyl-ethyl}-N-(4-pyridin-3-yl-benzyl)-acrylamide], `COCCN(C)C(=O)[C@H](Cc1ccccc1)N(Cc1ccc(-c2cccnc2)cc1)C(=O)C=Cc1ccc(OC)nc1` [Example 135, (S)-N-{1-[(2-Methoxy-ethyl)-methyl-carbamoyl]-2-phenyl-ethyl}-3-(6-methoxy-pyridin-3-yl)-N-(4-pyridin-3-yl-benzyl)-acrylamide] is lower in IC50: 82 nM for the first, under 8 nM for the second.

Going from `O=C([C@H](Cc1ccccc1)N(Cc1ccc(-c2ccccn2)cc1)C(=O)C=Cc1ccc(C(F)(F)F)nc1)N1CCC(c2ccccc2)CC1` [Example 50, (S)-N-[1-Benzyl-2-oxo-2-(4-phenyl-piperidin-1-yl)-ethyl]-N-(4-pyridin-2-yl-benzyl)-3-(6-trifluoromethyl-pyridin-3-yl)-acrylamide] to `O=C([C@H](Cc1ccccc1)N(Cc1ccc(-c2ccccn2)cc1)C(=O)C=Cc1ccc(C(F)(F)F)nc1)N1Cc2ccccc2C1` [Example 58, (S)-N-[1-Benzyl-2-(1,3-dihydro-isoindol-2-yl)-2-oxo-ethyl]-N-(4-pyridin-2-yl-benzyl)-3-(6-trifluoromethyl-pyridin-3-yl)-acrylamide], the IC50 rises from 13 nM to 50 nM (3.8-fold).

`CC(=O)N1CCN(c2ccc(CN(C(=O)C=Cc3ccc(C(F)(F)F)cc3)[C@@H](Cc3ccccc3)C(=O)N(C)CCOc3ncccn3)cc2)CC1` [Example 180, (S)-N-[4-(4-Acetyl-piperazin-1-yl)-benzyl]-N-(1-{methyl-[2-(pyrimidin-2-yloxy)-ethyl]-carbamoyl}-2-phenyl-ethyl)-3-(4-trifluoromethyl-phenyl)-acrylamide] and `CC(=O)N1CCN(c2ccc(CN(C(=O)C=Cc3ccc(C(F)(F)F)nc3)[C@@H](Cc3ccccc3)C(=O)N(C)CCOCC#N)cc2)CC1` [Example 217, (S)-N-[4-(4-Acetyl-piperazin-1-yl)-benzyl]-N-{1-[(2-cyanomethoxy-ethyl)-methyl-carbamoyl]-2-phenyl-ethyl}-3-(6-trifluoromethyl-pyridin-3-yl)-acrylamide] are within 1.5-fold of each other in IC50: 38 nM for the first, 32 nM for the second.

Going from `Cc1nc(C=CC(=O)N(Cc2ccc(-c3ccccn3)cc2)[C@@H](Cc2ccccc2)C(=O)N2CCC(N(C)C)CC2)cs1` [Example 11, (S)-N-[1-Benzyl-2-(4-dimethylamino-piperidin-1-yl)-2-oxo-ethyl]-3-(2-methyl-thiazol-4-yl)-N-(4-pyridin-2-yl-benzyl)-acrylamide] to `COCCN(C)C(=O)[C@H](Cc1ccccc1)N(Cc1ccc(N2CCOCC2)cc1)C(=O)C=Cc1csc(C)n1` [Example 62, (S)-N-{1-[(2-Methoxy-ethyl)-methyl-carbamoyl]-2-phenyl-ethyl}-3-(2-methyl-thiazol-4-yl)-N-(4-morpholin-4-yl-benzyl)-acrylamide], the IC50 falls from 315 nM to 138 nM (2.3-fold).

Going from `CN(CCN(C)C(=O)[C@H](Cc1ccccc1)N(Cc1ccc(-c2ccccn2)cc1)C(=O)C=Cc1ccc(C(F)(F)F)cc1)Cc1ccc(Br)nc1` [Example 227, (S)-N-[1-({2-[(6-Bromo-pyridin-3-ylmethyl)-methyl-amino]-ethyl}-methyl-carbamoyl)-2-phenyl-ethyl]-N-(4-pyridin-2-yl-benzyl)-3-(4-trifluoromethyl-phenyl)-acrylamide] to `CN(CCOCc1cccnc1)C(=O)[C@H](Cc1ccccc1)N(Cc1ccc(N2CCOCC2)cc1)C(=O)C=Cc1ccc(C(F)(F)F)cc1` [Example 203, (S)-N-(1-{Methyl-[2-(pyridin-3-ylmethoxy)-ethyl]-carbamoyl}-2-phenyl-ethyl)-N-(4-morpholin-4-yl-benzyl)-3-(4-trifluoromethyl-phenyl)-acrylamide], the IC50 falls from 18 nM to 12 nM (1.5-fold). The second is the more potent here.

Compared with `COCCN(C)C(=O)[C@H](Cc1ccccc1)N(Cc1ccccn1)C(=O)C=Cc1ccc(C)cc1` [Example 162, (S)-N-{1-[(2-Methoxy-ethyl)-methyl-carbamoyl]-2-phenyl-ethyl}-N-pyridin-2-ylmethyl-3-p-tolyl-acrylamide], `COCCN(C)C(=O)[C@H](Cc1ccccc1)N(Cc1ccc(-c2cncnc2)cc1)C(=O)C=Cc1ccc(Cl)nc1` [Example 128, (S)-3-(6-Chloro-pyridin-3-yl)-N-{1-[(2-methoxy-ethyl)-methyl-carbamoyl]-2-phenyl-ethyl}-N-(4-pyrimidin-5-yl-benzyl)-acrylamide] is 2.1-fold higher in IC50: 45 nM for the first, 94 nM for the second. The first is the more potent here.

`COCCN(C)C(=O)[C@H](Cc1ccccc1)N(Cc1ccc(-c2ccncc2)cc1)C(=O)C=Cc1csnn1` [Example 98, (S)-N-{1-[(2-Methoxy-ethyl)-methyl-carbamoyl]-2-phenyl-ethyl}-N-(4-pyridin-4-yl-benzyl)-3-[1,2,3]thiadiazol-4-yl-acrylamide] and `COCCN(C)C(=O)[C@H](Cc1ccccc1)N(Cc1ccc(N2CCN(C(C)=O)CC2)cc1)C(=O)C=Cc1ccc(C)cn1` [Example 114, (S)-N-[4-(4-Acetyl-piperazin-1-yl)-benzyl]-N-{1-[(2-methoxy-ethyl)-methyl-carbamoyl]-2-phenyl-ethyl}-3-(5-methyl-pyridin-2-yl)-acrylamide] are within 1.5-fold of each other in IC50: 98 nM for the first, 107 nM for the second.
